Measured values reported in US11708367B2, “Compounds for the treatment of kinase-dependent disorders” (Exelixis, Inc., priority 2018, dated 2023).

Key:
[1] = biological target: T1, Met (Homo sapiens (Human), UniProt P08581); experiment: Human Met kinase assay (33P radiometric, KinaseProfiler); assay type: biochemical; conditions: 10 μM ATP, read-out: c-Met IC50
[2] = biological target: T1, Met; experiment: Met autophosphorylation ELISA in PC-3 cells; assay type: cell-based; conditions: cellular, HGF-stimulated, phospho-Met ELISA, read-out: c-Met IC50
Summary of the method: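 Serum-starved PC-3 cells treated 1 h with compound (8-point series, 0.3% DMSO), then stimulated 10 min with 100 ng/mL HGF. Phospho-Met (panTyr) quantified in lysates by sandwich ELISA; IC50 from 4-parameter logistic fit against DMSO and reference-inhibitor controls.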
Target sequence in this assay (P08581 25-1390): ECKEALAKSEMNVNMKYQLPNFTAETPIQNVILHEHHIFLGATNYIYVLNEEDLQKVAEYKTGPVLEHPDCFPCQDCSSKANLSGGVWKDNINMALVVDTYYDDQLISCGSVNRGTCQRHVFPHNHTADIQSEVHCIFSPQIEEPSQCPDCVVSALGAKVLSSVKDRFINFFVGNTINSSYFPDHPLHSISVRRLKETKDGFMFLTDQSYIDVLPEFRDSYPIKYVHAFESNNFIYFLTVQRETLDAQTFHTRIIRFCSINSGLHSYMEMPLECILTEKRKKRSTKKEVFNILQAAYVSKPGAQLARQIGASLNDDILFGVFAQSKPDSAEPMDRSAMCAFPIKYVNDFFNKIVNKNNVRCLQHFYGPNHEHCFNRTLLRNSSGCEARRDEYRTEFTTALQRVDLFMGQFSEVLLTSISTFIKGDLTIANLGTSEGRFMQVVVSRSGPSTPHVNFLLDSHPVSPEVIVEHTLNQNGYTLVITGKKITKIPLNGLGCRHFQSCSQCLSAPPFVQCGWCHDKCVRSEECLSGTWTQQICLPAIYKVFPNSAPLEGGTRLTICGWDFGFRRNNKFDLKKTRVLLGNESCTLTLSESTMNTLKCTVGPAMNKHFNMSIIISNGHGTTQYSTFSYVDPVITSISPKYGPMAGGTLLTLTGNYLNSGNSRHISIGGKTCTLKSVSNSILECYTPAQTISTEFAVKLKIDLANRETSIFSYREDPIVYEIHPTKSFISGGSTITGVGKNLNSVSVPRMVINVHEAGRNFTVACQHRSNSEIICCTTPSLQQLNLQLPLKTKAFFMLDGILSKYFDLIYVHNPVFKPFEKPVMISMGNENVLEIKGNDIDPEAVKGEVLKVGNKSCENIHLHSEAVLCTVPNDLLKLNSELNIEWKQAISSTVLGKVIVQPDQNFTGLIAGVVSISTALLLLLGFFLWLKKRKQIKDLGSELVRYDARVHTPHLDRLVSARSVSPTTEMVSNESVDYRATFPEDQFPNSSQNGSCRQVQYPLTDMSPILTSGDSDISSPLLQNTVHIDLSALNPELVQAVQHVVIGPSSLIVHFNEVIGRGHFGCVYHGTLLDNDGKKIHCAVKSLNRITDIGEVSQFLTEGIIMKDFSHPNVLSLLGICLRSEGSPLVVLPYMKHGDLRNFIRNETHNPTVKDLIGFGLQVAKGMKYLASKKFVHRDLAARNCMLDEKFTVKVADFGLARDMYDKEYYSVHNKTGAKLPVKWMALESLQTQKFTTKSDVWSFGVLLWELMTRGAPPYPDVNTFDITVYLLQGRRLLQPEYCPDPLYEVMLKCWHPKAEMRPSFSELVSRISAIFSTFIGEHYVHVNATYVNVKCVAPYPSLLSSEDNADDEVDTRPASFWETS

[3] = biological target: T2, Mer (Homo sapiens (Human), UniProt Q12866); experiment: Human Mer kinase assay (33P radiometric, KinaseProfiler); assay type: biochemical; conditions: 10 μM ATP
Target sequence in this assay (Q12866 557-882): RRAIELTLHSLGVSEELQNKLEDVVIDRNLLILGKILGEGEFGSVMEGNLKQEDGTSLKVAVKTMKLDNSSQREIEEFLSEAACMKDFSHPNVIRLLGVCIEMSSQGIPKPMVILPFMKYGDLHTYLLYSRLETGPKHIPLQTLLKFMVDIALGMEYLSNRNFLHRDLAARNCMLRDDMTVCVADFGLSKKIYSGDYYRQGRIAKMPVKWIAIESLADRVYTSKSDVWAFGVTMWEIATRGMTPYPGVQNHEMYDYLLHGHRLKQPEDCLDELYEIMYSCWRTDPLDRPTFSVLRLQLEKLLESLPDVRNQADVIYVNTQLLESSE

[4] = biological target: T2, Mer; experiment: Mer autophosphorylation ELISA in transient transfected 293A cells; assay type: cell-based; conditions: cellular, MERTK-transfected 293A cells, phospho-Mer ELISA
Target sequence in this assay (Q12866 21-999): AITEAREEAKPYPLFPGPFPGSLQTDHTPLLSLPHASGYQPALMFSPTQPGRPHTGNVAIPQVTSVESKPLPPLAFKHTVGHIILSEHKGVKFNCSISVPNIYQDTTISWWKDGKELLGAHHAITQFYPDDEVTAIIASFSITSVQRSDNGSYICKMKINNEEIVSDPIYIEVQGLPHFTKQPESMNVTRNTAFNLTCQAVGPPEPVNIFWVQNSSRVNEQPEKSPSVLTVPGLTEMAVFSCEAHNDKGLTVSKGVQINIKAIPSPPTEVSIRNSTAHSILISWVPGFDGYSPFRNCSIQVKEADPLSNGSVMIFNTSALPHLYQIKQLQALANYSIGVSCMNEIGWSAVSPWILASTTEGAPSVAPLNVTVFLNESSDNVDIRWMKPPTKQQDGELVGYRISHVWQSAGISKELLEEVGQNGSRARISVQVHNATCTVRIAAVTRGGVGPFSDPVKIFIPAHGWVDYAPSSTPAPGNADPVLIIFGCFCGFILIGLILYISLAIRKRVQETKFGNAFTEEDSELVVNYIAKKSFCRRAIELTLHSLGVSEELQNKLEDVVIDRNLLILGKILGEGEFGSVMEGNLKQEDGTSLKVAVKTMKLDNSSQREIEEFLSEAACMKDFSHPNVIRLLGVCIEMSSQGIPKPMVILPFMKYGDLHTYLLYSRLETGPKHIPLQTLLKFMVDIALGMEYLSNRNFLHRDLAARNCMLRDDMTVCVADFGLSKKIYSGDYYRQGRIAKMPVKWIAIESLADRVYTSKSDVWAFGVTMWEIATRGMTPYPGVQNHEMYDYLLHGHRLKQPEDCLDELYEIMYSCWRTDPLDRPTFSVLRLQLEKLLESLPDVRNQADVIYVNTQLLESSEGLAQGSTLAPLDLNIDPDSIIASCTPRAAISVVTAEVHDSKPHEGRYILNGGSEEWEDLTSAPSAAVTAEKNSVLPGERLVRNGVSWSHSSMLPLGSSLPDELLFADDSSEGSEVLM

| SMILES | IC50 [1] [nM] | IC50 [2] [nM] | IC50 [3] [nM] | IC50 [4] [nM] |
| --- | --- | --- | --- | --- |
| COc1nc2c(Oc3ccc(NC(=O)C4(C(=O)Nc5ccc(F)cc5)CC4)cc3)ncnc2cc1OCCCN1CCOCC1 [Compound 65, 1-N′-(4-fluorophenyl)-1-N-[4-[6-methoxy-7-(3-morpholin-4-ylpropoxy)pyrido[3,2-d]pyrimidin-4-yl]oxyphenyl]cyclopropane-1,1-dicarboxamide] | 10 to 100 | 10 to 100 | ≤ 10 | 10 to 100 |
| COc1cc2nccc(Oc3ccc(NC(=O)C4(C(=O)Nc5ccc(F)cc5)CC4)cc3)c2nc1OC [Compound 139, 1-N-[4-[(6,7-dimethoxy-1,5-naphthyridin-4-yl)oxy]phenyl]-1-N′-(4-fluorophenyl)cyclo-propane-1,1-dicarboxamide] | ≤ 10 | 10 to 100 | ≤ 10 | ≤ 10 |
| COc1cc2nccc(Oc3ccc(NC(=O)C4(C(=O)Nc5ccc(F)cc5)CC4)cc3F)c2nc1OC [Compound 140, 1-N′-[4-[(6,7-dimethoxy-1,5-naphthyridin-4-yl)oxy]-3-fluorophenyl]-1-N-(4-fluorophenyl)cyclopropane-1,1-dicarboxamide] | ≤ 10 | ≤ 10 | ≤ 10 | ≤ 10 |
